Like-named read-outs stand apart in the source and are kept apart here.
Assays:
HIV-1 NefNL4-3 = HIV-1 NefNL4-3 (Human immunodeficiency virus type 1 group M subtype B, UniProt P03406, A33V/T15A/T51N/V11I); experiment: Surface plasmon resonance binding to recombinant full-length Nef (NL4-3); conditions: for RU30/RUNef (extent of binding): response units at 30 μM relative to Nef immobilized on the SPR chip
HIV-1NL4-3 = experiment: HIV-1 infectivity assay in TZM-bl reporter cell line (LTR-luciferase, 48 h); type: cell-based; conditions: Human immunodeficiency virus 1, TZM-bl
In short: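 Percent inhibition of HIV-1NL4-3 infectivity at 1 μM compound, from luciferase output of TZM-bl cells 48 h after infection. Scale anchors are DMSO-treated wild-type infection as zero and DMSO-treated Nef-defective infection as full Nef-dependent effect.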

TZM-bl cell line = type: cell-based; conditions: human, 1 μM
In short: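 Read-out is luciferase from an integrated HIV-1 LTR reporter in TZM-bl cells, 48 h after HIV-1NL4-3 infection in the presence of 1 μM compound. Scale set by DMSO-treated wild-type-infected cells (0%) and Nef-defective virus (100% Nef-dependent effect). Cell Titer Blue measures cytotoxicity without virus.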

[1] = KD, M, Table 4, SPR fit 1:1 Langmuir, KD = koff/kon
[2] = Table 4, 1:1 Langmuir fit, T = 1/koff
[3] = 1.0 μM, TZM-bl reporter cell line, Table 4, read-out: % Infectivity Inhibition
[4] = KD, M, Table 4, SPR fit 2-step induced fit, KD = koff/kon × koff2/(koff2 + kon2)
[5] = Table 4, 2-step induced fit, T = 1/koff2
[6] = 48 h, Table 1, TZM-bl cells, 1 μM, 48 h, 100% = Nef-defective HIV-1, read-out: HIV-1 Infectivity % Inhibition Norm. to Δ-Nef @ 1 μM
[7] = Nef NL4-3 Binding, SPR 2-state fitting KD, Table 1, 2-step induced-fit model

SMILES | Kd (HIV-1 NefNL4-3; [1]) [µM] | T, minutes (residence time) (HIV-1 NefNL4-3; [2]) [E + 00 minutes] | RU30/RUNef (extent of binding) (HIV-1 NefNL4-3) | inhibition at 1 µM (HIV-1NL4-3; [3]) [%] | % Cell Viability (TZM-bl cell line) [%] | Kd (HIV-1 NefNL4-3; [4]) [µM] | T, minutes (residence time) (HIV-1 NefNL4-3; [5]) | Nef NL4-3 Binding, SPR 1:1 or 2-site fitting KD1 (HIV-1 NefNL4-3; Table 1, 1:1 Langmuir fit where the KD2 cell says '1 to 1 fitting', else 2-site fit) | inhibition at 1 µM (HIV-1NL4-3; [6]) [%] | Percent Viability @ 1 μM (TZM-bl cells) (TZM-bl cell line) [%] | Kd (HIV-1 NefNL4-3) [µM] | Kd (HIV-1 NefNL4-3; [7]) [µM]
Oc1c(CC2CCOCC2)c(-c2ccccc2)nn1-c1nc2ccccc2[nH]1 [Compound I-183, 1-(1H-1,3-benzodiazol-2-yl)-4-[(oxan-4-yl)methyl]-3-phenyl-1H-pyrazol-5-ol] | 2.27 | 7.61 | 1.71E- 03 | 37.8 | 100 | – | – | – | – | – | – | –
Oc1c(CC2CCOCC2)c(-c2cccc(F)c2)nn1-c1nc2ccccc2[nH]1 [Compound I-184, 1-(1H-1,3-benzodiazol-2-yl)-3-(3-fluorophenyl)-4-[(oxan-4-yl)methyl]-1H-pyrazol-5-ol] | 3.52 | 6.46 | 2.48E- 03 | 100 | 100 | – | – | – | – | – | – | –
Oc1c(CC2CCOCC2)c(-c2ccc(F)c(F)c2)nn1-c1nc2ccccc2[nH]1 [Compound I-185, 1-(1H-1,3-benzodiazol-2-yl)-3-(3,4-difluorophenyl)-4-[(oxan-4-yl)methyl]-1H-pyrazol-5-ol] | – | – | 4.57E- 03 | 100 | 95.1 | 3.4 | 1.04E + 01 minutes | – | – | – | – | –
Oc1c(CC2CCOCC2)c(-c2ccccc2F)nn1-c1nc2ccccc2[nH]1 [Compound I-186, 1-(1H-1,3-benzodiazol-2-yl)-3-(2-fluorophenyl)-4-[(oxan-4-yl)methyl]-1H-pyrazol-5-ol] | – | – | 1.62E- 02 | 61.5 | 99.3 | 11.7 | 7.72E + 00 minutes | – | – | – | – | –
Oc1c(CC2CCOCC2)c(-c2ccc(F)cc2F)nn1-c1nc2ccccc2[nH]1 [Compound I-187, 1-(1H-1,3-benzodiazol-2-yl)-3-(2,4-difluorophenyl)-4-[(oxan-4-yl)methyl]-1H-pyrazol-5-ol] | – | – | 8.62E- 03 | 20.2 | 100 | 3.07e-05 | 1.02E + 06 minutes | – | – | – | – | –
CC(C)(C)OC(=O)N1CCC(Cc2nn(-c3nc4ccccc4[nH]3)c(O)c2CCc2ccc(F)cc2)C1 (stereo not shown) [Compound I-206, tert-butyl 3-{[1-(1H-1,3-benzodiazol-2-yl)-4-[2-(4-fluorophenyl)ethyl]-5-hydroxy-1H-pyrazol-3-yl]methyl}pyrrolidine-1-carboxylate] | – | – | – | – | – | – | – | No Interaction | 35.2 | 90.6 | – | –
CC(C)(C)OC(=O)c1ccc(-c2nn(-c3nc4ccccc4[nH]3)c(O)c2CCc2ccc(F)cc2)cc1 [Compound I-208, tert-butyl 4-[1-(1H-1,3-benzodiazol-2-yl)-4-[2-(4-fluorophenyl)ethyl]-5-hydroxy-1H-pyrazol-3-yl]benzoate] | – | – | 1.63E- 02 | 39.2 | 90.6 | 67.8 | 3.95E- 02 minutes | – | 39.2 | 90.6 | 13.8 | 67.8
CC(C)(C)OC(=O)N1C[C@@H]2[C@H](C1)[C@H]2c1nn(-c2nc3ccccc3[nH]2)c(O)c1CCc1ccc(F)cc1 [Compound I-209, tert-butyl 6-[1-(1H-1,3-benzodiazol-2-yl)-4-[2-(4-fluorophenyl)ethyl]-5-hydroxy-1H-pyrazol-3-yl]-3-azabicyclo[3.1.0]hexane-3-carboxylate] | – | – | 8.59E- 03 | 4.2 | 100 | 4.83 | 3.81E- 01 minutes | – | 4.2 | 100.1 | 0.776 | 5.83
